In patent publication US8114862B2, “TGR5 modulators and methods of use thereof” (Intercept Pharmaceuticals, Inc., priority 2008, dated 2012):

What was measured:
[1] = Stability in human liver microsomes; conditions: microsomes
[2] = Stability in human liver S9 fraction

C[C@]12CC[C@H]3[C@@H](CCC4=CC(=O)CC[C@@]43C)[C@@H]1CC[C@@H]2O [Testosterone, reference compound]
half-life [1]: 8 to 20 min
half-life [2]: 39 min
